Laboratory results as given in US20250215039A1, “NUCLEOSIDES FOR TREATING CANCER” (PRIMEFOUR THERAPEUTICS, INC., priority 2022, published 2025).
Read-outs that look alike come from different tables or passages of the source.

Test system: cancer cell lines
Assay: Cancer cell proliferation activity (CellTiterGlo, 72 h)
Type: cell-based
Settings: 72 h, 72 h, read-out: IC50
Outline: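 Readout is CellTiterGlo luminescence after 72 h compound exposure (0.1% DMSO final), started one day post-seeding, at 37 °C.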

O=c1[nH]c(=O)n([C@H]2C[C@H](O)[C@](CO)(CF)O2)cc1F [Cpd. No. 112, 5-fluoro-1-((2R,4S,5R)-5-(fluoromethyl)-4-hydroxy-5-(hydroxymethyl)tetrahydrofuran-2-yl)pyrimidine-2,4(1H,3H)-dione]
IC50 (5637 cell line (bladder)): 2.89 µM | IC50 (CLS439 cell line (bladder)): > 50 µM | IC50 (HS729 cell line (muscle)): > 50 µM | IC50 (HSS78T cell line): > 50 µM | IC50 (JAR cell line (placenta)): > 50 µM | IC50 (SKMELS cell line): > 50 µM | IC50 (Homo sapiens, 22Rv1, 72 h, 22RV1 cell line (prostate)): 1.5 µM | IC50 (Homo sapiens, 786-0, 72 h, 786O cell line (kidney)): > 50 µM | IC50 (Homo sapiens, A204, 72 h, A204 cell line (muscle)): 5.28 µM | IC50 (Homo sapiens, A549, 72 h, A549 cell line): 2.52 µM | IC50 (Homo sapiens, A673, 72 h, A673 cell line (bone)): 5.33 µM | IC50 (Homo sapiens, A2780, 72 h, A2780 cell line (ovary)): > 50 µM | IC50 (Homo sapiens, A-375, 72 h, A375 cell line (skin)): 6.3 µM | IC50 (Homo sapiens, A-431, 72 h, A431 cell line (skin)): 0.34 µM | IC50 (Homo sapiens, ACHN, ACHN cell line (kidney)): 1.51 µM | IC50 (Homo sapiens, ASPC1, 72 h, ASPC1 cell line (pancreas)): 0.58 µM | IC50 (Homo sapiens, BT-20, 72 h, BT20 cell line (breast)): > 50 µM | IC50 (Homo sapiens, BXPC-3, 72 h, BXPC3 cell line (pancreas)): 0.08 µM | IC50 (Homo sapiens, C-33-A, C33A cell line (cervical)): 3.92 µM | IC50 (Homo sapiens, CAKI-1, 72 h, CAKI1 cell line (kidney)): > 50 µM | IC50 (Homo sapiens, COLO 205, 72 h, COLO205 cell line (colon)): 1.83 µM | IC50 (Homo sapiens, COLO-678, 72 h, COLO678 cell line (colon)): > 50 µM | IC50 (Homo sapiens, Ca-Ski, CASKI cell line (cervical)): 7.06 µM | IC50 (Homo sapiens, Caco-2, 72 h, CACO2 cell line (colon)): > 50 µM | IC50 (Homo sapiens, Calu-6, 72 h, CALU6 cell line (lung)): 4.68 µM | IC50 (Homo sapiens, DLD-1, 72 h, DLD1 cell line (colon)): > 50 µM | IC50 (Homo sapiens, DU-145, 72 h, DU145 cell line (prostate)): 3.15 µM | IC50 (Homo sapiens, EFO-21, 72 h, EFO21 cell line (ovary)): 16.9 µM | IC50 (Homo sapiens, EJ-28, 72 h, EJ28 cell line (bladder)): 5.41 µM | IC50 (Homo sapiens, Granta-519, 72 h, GRANTA-519 cell line (hematological)): 3.3 µM | IC50 (Homo sapiens, HCT-15, 72 h, HCT15 cell line (colon)): > 50 µM | IC50 (Homo sapiens, HCT-116, 72 h, HCT116 cell line (colon)): > 50 µM | IC50 (Homo sapiens, HEK293, 72 h, HEK293 cell line (kidney)): > 50 µM | IC50 (Homo sapiens, HL-60, 72 h, HL-60 cell line (hematological)): > 50 µM | IC50 (Homo sapiens, HT-29, 72 h, HT29 cell line (colon)): 2.8 µM | IC50 (Homo sapiens, HT-1080, 72 h, HT1080 cell line (connective tissue)): > 50 µM | IC50 (Homo sapiens, HeLa, HELA cell line (cervical)): > 50 µM | IC50 (Homo sapiens, HepG2, 72 h, HEPG2 cell line (liver)): 3.4 µM | IC50 (Homo sapiens, IGROV-1, 72 h, IGROV1 cell line (ovary)): > 50 µM | IC50 (Homo sapiens, IMR-90, 72 h, IMR.90 cell line): > 50 µM | IC50 (Homo sapiens, J82, 72 h, J82 cell line (bladder)): 1.32 µM | IC50 (Homo sapiens, JEG-3, 72 h, JEG3 cell line (placenta)): 4.2 µM | IC50 (Homo sapiens, JIMT-1, 72 h, JIMT1 cell line (breast)): > 50 µM | IC50 (Homo sapiens, K562, 72 h, K-562 cell line (hematological)): > 50 µM | IC50 (Homo sapiens, Kasumi 1, 72 h, KASUMI-1 cell line (hematological)): > 50 µM | IC50 (Homo sapiens, L-363, 72 h, L-363 cell line (hematological)): 5.63 µM | IC50 (Homo sapiens, LoVo, LOVO cell line (colon)): 1.95 µM | IC50 (Homo sapiens, MCF7, 72 h, MCF7 cell line (breast)): 1.04 µM | IC50 (Homo sapiens, MDA-MB-231, 72 h, MDAMB231 cell line (breast)): > 50 µM | IC50 (Homo sapiens, MDA-MB-435, 72 h, MDAMB435 cell line (skin)): > 50 µM | IC50 (Homo sapiens, MDA-MB-436, 72 h, MDAMB436 cell line (breast)): 1.43 µM | IC50 (Homo sapiens, MDA-MB-468, 72 h, MDAMB468 cell line (breast)): > 50 µM | IC50 (Homo sapiens, MG-63, 72 h, MG63 cell line (bone)): 4.7 µM | IC50 (Homo sapiens, MHH-ES-1, 72 h, MHHES1 cell line (bone)): > 50 µM | IC50 (Homo sapiens, MIA PaCa-2, 72 h, MIAPACA2 cell line (pancreas)): 6.39 µM | IC50 (Homo sapiens, MINO, MINO cell line (hematological)): 2.3 µM | IC50 (Homo sapiens, MV4-11, 72 h, MV4-11 cell line (hematological)): 0.79 µM | IC50 (Homo sapiens, NCI-H23, 72 h, NCI-H23 cell line (lung)): 4.86 µM | IC50 (Homo sapiens, NCI-H82, 72 h, NCIH82 cell line (lung)): > 50 µM | IC50 (Homo sapiens, NCI-H292, 72 h, NCIH292 cell line (lung)): > 50 µM | IC50 (Homo sapiens, NCI-H460, 72 h, NCIH460 cell line (lung)): 2.29 µM | IC50 (Homo sapiens, OVCAR-3, 72 h, OVCAR3 cell line (ovary)): > 50 µM | IC50 (Homo sapiens, OVCAR-4, 72 h, OVCAR4 cell line (ovary)): > 50 µM | IC50 (Homo sapiens, PANC-1, 72 h, PANC1 cell line (pancreas)): > 50 µM | IC50 (Homo sapiens, PC-3, 72 h, PC3 cell line (prostate)): > 50 µM | IC50 (Homo sapiens, PLC-PRF-5, 72 h, PLCPRF5 cell line (liver)): 3.79 µM | IC50 (Homo sapiens, Panc1005, 72 h, PANC1005 cell line (pancreas)): > 50 µM | IC50 (Homo sapiens, RD, RD cell line (muscle)): > 50 µM | IC50 (Homo sapiens, Ramos, RAMOS cell line (hematological)): > 50 µM | IC50 (Homo sapiens, SAOS-2, 72 h, SAOS2 cell line (bone)): 6.6 µM | IC50 (Homo sapiens, SF-268, 72 h, SF268 cell line (brain)): 3.94 µM | IC50 (Homo sapiens, SF-295, 72 h, SF295 cell line (brain)): 3.65 µM | IC50 (Homo sapiens, SK-BR-3, 72 h, SKBR3 cell line (breast)): 0.22 µM | IC50 (Homo sapiens, SK-HEP1, 72 h, SKHEP1 cell line (liver)): > 50 µM | IC50 (Homo sapiens, SK-LMS-1, 72 h, SKLMS1 cell line (uterus)): 3.55 µM | IC50 (Homo sapiens, SK-MEL-28, 72 h, SKMEL28 cell line (skin)): > 50 µM | IC50 (Homo sapiens, SK-N-AS, SKNAS cell line (brain)): > 50 µM | IC50 (Homo sapiens, SK-N-SH, SKNSH cell line (brain)): > 50 µM | IC50 (Homo sapiens, SK-OV-3, 72 h, SKOV3 cell line (ovary)): 3.18 µM | IC50 (Homo sapiens, SNB-75, 72 h, SNB75 cell line (brain)): > 50 µM | IC50 (Homo sapiens, SU-DHL10, 72 h, SU-DHL-10 cell line (hematological)): > 50 µM | IC50 (Homo sapiens, SU-DHL-6, 72 h, SU-DHL-6 cell line (hematological)): > 50 µM | IC50 (Homo sapiens, SW-620, 72 h, SW620 cell line (colon)): 1.71 µM | IC50 (Homo sapiens, T-24, 72 h, T24 cell line (bladder)): 5.25 µM | IC50 (Homo sapiens, TE-671, 72 h, TE671 cell line (muscle)): > 50 µM | IC50 (Homo sapiens, THP-1, 72 h, THP-1 cell line (hematological)): 5.57 µM | IC50 (Homo sapiens, U2OS, U2OS cell line (bone)): > 50 µM | IC50 (Homo sapiens, U-87 MG, U87MG cell line (brain)): > 50 µM | IC50 (Homo sapiens, UMUC3, 72 h, UMUC3 cell line (bladder)): 7.75 µM | IC50 (Homo sapiens, UO-31, 72 h, UO31 cell line (kidney)): > 50 µM | IC50 (Homo sapiens, WSU-NHL, WSU-NHL cell line (hematological)): 5.66 µM | IC50 (MT-3, 72 h, MT3 cell line (breast)): 3.17 µM | IC50 (NCI-H358M, NCIH358M cell line (lung)): 9.06 µM | IC50 (PBMC, PBMC (hematological)): > 50 µM | IC50 (RD-ES, RDES cell line (bone)): 3.48 µM
